According to the supplement of paper PMC10307832:

Legend:
Assay in all cases: relative viability (nuclei count vs DMSO), 5 days (fraction); higher = more cells survive
HCC-366 = tested on: HCC-366
Outline: (§1)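 Each reported value is a median over duplicate plates. It expresses relative viability: treated-well nuclei count divided by vehicle-well nuclei count. Lung cancer cell lines in 1536-well plates were dosed by pin tool a day after seeding, alone with one drug or with a fixed anchor-drug dose plus five library-drug doses (not always all listed) in √10 steps, and nuclei were counted after 5 days.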

NCI-H460 = tested on: NCI-H460
Outline: as §1

NCI-H1651 = tested on: NCI-H1651
Outline: as §1

NCI-H1755 = tested on: NCI-H1755
Outline: as §1

ABC-1 = tested on: ABC-1
Outline: as §1

NCI-H2228 = tested on: NCI-H2228
Outline: as §1

CAL-12T = tested on: CAL-12T
Outline: as §1

PC-3 [JPC-3] = tested on: PC-3 [JPC-3]
Outline: as §1

NCI-H2405 = tested on: NCI-H2405
Outline: as §1

LOU-NH91 = tested on: LOU-NH91
Outline: as §1

RERF-LC-KJ = tested on: RERF-LC-KJ
Outline: as §1

NCI-H2170 = tested on: NCI-H2170
Outline: as §1

NCI-H2087 = tested on: NCI-H2087
Outline: as §1

UMC-11 = tested on: UMC-11
Outline: as §1

NCI-H3122 = tested on: NCI-H3122
Outline: as §1

NCI-H1734 = tested on: NCI-H1734
Outline: as §1

NCI-H1395 = tested on: NCI-H1395
Outline: as §1

NCI-H1944 = tested on: NCI-H1944
Outline: as §1

NCI-H1793 = tested on: NCI-H1793
Outline: as §1

HCC-78 = tested on: HCC-78
Outline: as §1

LC-2-ad = tested on: LC-2-ad
Outline: as §1

LU99A = tested on: LU99A
Outline: as §1

**Q.** Which results are given for NC(=O)Nc1cc(-c2cccc(F)c2)sc1C(=O)N[C@H]1CCCNC1 [AZD7762] + Cc1nc(NC(=O)N2CCC[C@H]2C(N)=O)sc1-c1ccnc(C(C)(C)C(F)(F)F)c1 [Alpelisib] (partner 2 µM)?
**A.** relative viability (HCC-366; first compound 0.01 µM): 0.45; relative viability (HCC-366; first compound 0.03162 µM): 0.521; relative viability (HCC-366; first compound 0.1 µM): 0.229; relative viability (HCC-366; first compound 0.3162 µM): 0.189; relative viability (HCC-366; first compound 1 µM): 0.134; relative viability (NCI-H460; first compound 0.01 µM): 0.604; relative viability (NCI-H460; first compound 0.03162 µM): 0.498; relative viability (NCI-H460; first compound 0.1 µM): 0.54; relative viability (NCI-H460; first compound 0.3162 µM): 0.293; relative viability (NCI-H460; first compound 1 µM): 0.0196; relative viability (NCI-H1651; first compound 0.01 µM): 0.918; relative viability (NCI-H1651; first compound 0.03162 µM): 0.849; relative viability (NCI-H1651; first compound 0.1 µM): 0.927; relative viability (NCI-H1651; first compound 0.3162 µM): 0.753; relative viability (NCI-H1651; first compound 1 µM): 0.33; relative viability (NCI-H1755; first compound 0.01 µM): 0.957; relative viability (NCI-H1755; first compound 0.03162 µM): 0.924; relative viability (NCI-H1755; first compound 0.1 µM): 0.999; relative viability (NCI-H1755; first compound 0.3162 µM): 0.907; relative viability (NCI-H1755; first compound 1 µM): 0.547; relative viability (ABC-1; first compound 0.01 µM): 1.03; relative viability (ABC-1; first compound 0.03162 µM): 0.831; relative viability (ABC-1; first compound 0.1 µM): 0.942; relative viability (ABC-1; first compound 0.3162 µM): 0.557; relative viability (ABC-1; first compound 1 µM): 0.311; relative viability (NCI-H2228; first compound 0.01 µM): 0.886; relative viability (NCI-H2228; first compound 0.03162 µM): 0.666; relative viability (NCI-H2228; first compound 0.1 µM): 0.8; relative viability (NCI-H2228; first compound 0.3162 µM): 0.407; relative viability (NCI-H2228; first compound 1 µM): 0.19; relative viability (CAL-12T; first compound 0.01 µM): 1.3; relative viability (CAL-12T; first compound 0.03162 µM): 1.18; relative viability (CAL-12T; first compound 0.1 µM): 1.24; relative viability (CAL-12T; first compound 0.3162 µM): 0.955; relative viability (CAL-12T; first compound 1 µM): 0.155; relative viability (PC-3 [JPC-3]; first compound 0.01 µM): 0.998; relative viability (PC-3 [JPC-3]; first compound 0.03162 µM): 1.03; relative viability (PC-3 [JPC-3]; first compound 0.1 µM): 1.05; relative viability (PC-3 [JPC-3]; first compound 0.3162 µM): 1.1; relative viability (PC-3 [JPC-3]; first compound 1 µM): 0.897; relative viability (NCI-H2405; first compound 0.01 µM): 0.808; relative viability (NCI-H2405; first compound 0.03162 µM): 0.79; relative viability (NCI-H2405; first compound 0.1 µM): 0.671; relative viability (NCI-H2405; first compound 0.3162 µM): 0.445; relative viability (NCI-H2405; first compound 1 µM): 0.27; relative viability (LOU-NH91; first compound 0.01 µM): 0.731; relative viability (LOU-NH91; first compound 0.03162 µM): 0.741; relative viability (LOU-NH91; first compound 0.1 µM): 0.645; relative viability (LOU-NH91; first compound 0.3162 µM): 0.612; relative viability (LOU-NH91; first compound 1 µM): 0.478; relative viability (RERF-LC-KJ; first compound 0.01 µM): 0.792; relative viability (RERF-LC-KJ; first compound 0.03162 µM): 0.773; relative viability (RERF-LC-KJ; first compound 0.1 µM): 0.787; relative viability (RERF-LC-KJ; first compound 0.3162 µM): 0.924; relative viability (RERF-LC-KJ; first compound 1 µM): 0.914; relative viability (NCI-H2170; first compound 0.01 µM): 0.843; relative viability (NCI-H2170; first compound 0.03162 µM): 0.75; relative viability (NCI-H2170; first compound 0.1 µM): 0.727; relative viability (NCI-H2170; first compound 0.3162 µM): 0.797; relative viability (NCI-H2170; first compound 1 µM): 0.776; relative viability (NCI-H2087; first compound 0.01 µM): 1.18; relative viability (NCI-H2087; first compound 0.03162 µM): 1.08; relative viability (NCI-H2087; first compound 0.1 µM): 1.45; relative viability (NCI-H2087; first compound 0.3162 µM): 1.34; relative viability (NCI-H2087; first compound 1 µM): 1.27; relative viability (UMC-11; first compound 0.01 µM): 1.03; relative viability (UMC-11; first compound 0.03162 µM): 0.962; relative viability (UMC-11; first compound 0.1 µM): 1.06; relative viability (UMC-11; first compound 0.3162 µM): 1.03; relative viability (UMC-11; first compound 1 µM): 0.653; relative viability (NCI-H3122; first compound 0.01 µM): 0.768; relative viability (NCI-H3122; first compound 0.03162 µM): 0.866; relative viability (NCI-H3122; first compound 0.1 µM): 0.737; relative viability (NCI-H3122; first compound 0.3162 µM): 0.748; relative viability (NCI-H3122; first compound 1 µM): 0.758; relative viability (NCI-H1734; first compound 0.01 µM): 0.729; relative viability (NCI-H1734; first compound 0.03162 µM): 0.782; relative viability (NCI-H1734; first compound 0.1 µM): 0.775; relative viability (NCI-H1734; first compound 0.3162 µM): 0.753; relative viability (NCI-H1734; first compound 1 µM): 0.646; relative viability (NCI-H1395; first compound 0.01 µM): 1.2; relative viability (NCI-H1395; first compound 0.03162 µM): 1.1; relative viability (NCI-H1395; first compound 0.1 µM): 1.16; relative viability (NCI-H1395; first compound 0.3162 µM): 0.649; relative viability (NCI-H1395; first compound 1 µM): 0.436; relative viability (NCI-H1944; first compound 0.01 µM): 0.855; relative viability (NCI-H1944; first compound 0.03162 µM): 1.03; relative viability (NCI-H1944; first compound 0.1 µM): 1.01; relative viability (NCI-H1944; first compound 0.3162 µM): 1.08; relative viability (NCI-H1944; first compound 1 µM): 0.893; relative viability (NCI-H1793; first compound 0.01 µM): 0.835; relative viability (NCI-H1793; first compound 0.03162 µM): 0.795; relative viability (NCI-H1793; first compound 0.1 µM): 0.627; relative viability (NCI-H1793; first compound 0.3162 µM): 0.854; relative viability (NCI-H1793; first compound 1 µM): 0.524; relative viability (HCC-78; first compound 0.01 µM): 0.371; relative viability (HCC-78; first compound 0.03162 µM): 0.419; relative viability (HCC-78; first compound 0.1 µM): 0.361; relative viability (HCC-78; first compound 0.3162 µM): 0.394; relative viability (HCC-78; first compound 1 µM): 0.287; relative viability (LC-2-ad; first compound 0.01 µM): 0.979; relative viability (LC-2-ad; first compound 0.03162 µM): 0.897; relative viability (LC-2-ad; first compound 0.1 µM): 0.795; relative viability (LC-2-ad; first compound 0.3162 µM): 0.612; relative viability (LC-2-ad; first compound 1 µM): 0.433; relative viability (LU99A; first compound 0.01 µM): 0.575; relative viability (LU99A; first compound 0.03162 µM): 0.568; relative viability (LU99A; first compound 0.1 µM): 0.543; relative viability (LU99A; first compound 0.3162 µM): 0.514; relative viability (LU99A; first compound 1 µM): 0.329
